Test results from patent US8372600B2, “Method and apparatus for measuring changes in cell volume” (priority 2004, dated 2013).

Tests used:
[1] = biological target: T1, P2X7 (purinergic ion channels) (Homo sapiens, UniProt Q99572); test: Volume change of HEK cells transfected with P2X7, measured in the chamber; type: cell-based
T1 construct: expressed in transfected cells; host or cells: HEK cells
T1 sequence (Q99572 1-595): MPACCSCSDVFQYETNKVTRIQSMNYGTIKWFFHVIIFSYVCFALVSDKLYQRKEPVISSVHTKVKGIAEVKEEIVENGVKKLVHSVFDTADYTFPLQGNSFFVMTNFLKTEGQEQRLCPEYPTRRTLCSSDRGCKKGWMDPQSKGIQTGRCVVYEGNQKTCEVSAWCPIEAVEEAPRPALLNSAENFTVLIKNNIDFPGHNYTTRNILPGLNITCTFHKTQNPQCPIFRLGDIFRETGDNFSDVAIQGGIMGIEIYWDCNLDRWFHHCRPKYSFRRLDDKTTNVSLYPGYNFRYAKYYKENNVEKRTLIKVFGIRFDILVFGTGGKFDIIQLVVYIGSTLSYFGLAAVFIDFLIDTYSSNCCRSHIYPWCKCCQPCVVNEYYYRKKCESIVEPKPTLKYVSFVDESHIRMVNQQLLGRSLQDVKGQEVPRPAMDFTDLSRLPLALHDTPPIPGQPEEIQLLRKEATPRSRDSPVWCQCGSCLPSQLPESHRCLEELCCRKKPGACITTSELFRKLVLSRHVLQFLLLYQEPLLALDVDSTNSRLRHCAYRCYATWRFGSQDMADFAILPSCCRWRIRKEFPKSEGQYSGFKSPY
From the text: The chamber is sensitive to more than toxic or anisotonic media. […] Thus, the device can serve as a coarse grained substitute for common (but slow) electrophysiologically assays.

[2] = test system: E. Coli strain (BL21(DE3)); test: Antibiotic sensitivity of suspended bacteria: growth monitored by chamber resistance; type: cell-based; conditions: 50 μg/ml and 10 μg/ml, 24° C., FIG. 14
Method: To test the microfluidic chip performance with suspended cells, the first chamber was perfused with an E. Coli suspension. The E. Coli strain (BL21(DE3)) harbors a plasmid that confers resistance to kanamycin. The cells were tested for antibiotic sensitivity by adding varying concentrations of carbenicillin—an antibiotic to which the bacteria are susceptible. After filling the chamber with bacteria, flow was stopped and the chamber resistance monitored. […] By adding specific ligands, such as antibodies, to the walls of the measuring chamber, specific microorganisms can be purified, concentrated and assayed in a single step. Since cellular organelles are similar in size to bacteria, the present invention can also be used to study the metabolism of mitochondria, chloroplasts, and vesicles or organelles such as the ER.

astrocyte RVD = test: Astrocyte regulatory volume decrease (RVD) under a 188 mOsm hypotonic stimulus, measured as chamber resistance in the microfluidic chip; type: cell-based, rat; conditions: 188 mOsm stimulus; for Effect on RVD: FIG. 13
From the text: A microfluidic chip comprising a channel 15 μm deep and 1.5 mm wide was fabricated an connected to a fluid inlet and a fluid outlet. Along the length of the channel, there were two chambers (labeled 22 and 24 in FIGS. 1-3). Chamber 22 was configured for measuring cell volume and comprised a depth of 15 μm. Chamber 24 was deeper (55 μm) and served as a calibrating chamber for monitoring solution resistivity. Thin film platinum electrodes disposed in each chamber formed a four-point probe for measuring the chamber impedance. The chip was mounted on an acrylic platform to mate with external fluid connections. For testing adherent cells, the cells were cultured on glass coverslips and inverted on top of the chip so that the cells faced chamber 22. The coverslip was pressed against the chip with a clamp that applied a uniform force of approximately 50 N. For the electrical measurements, an active current source providing 1 μA of a 50 Hz sinusoid was applied to the two outer electrodes. Low frequency stimulation was utilized to minimize the dielectric loss in the silicon and to reduce the demands on the common mode rejection of the voltage amplifier. The voltage between the two inner electrodes was measured using a homemade instrumentation amplifier with input currents <1 pA to reduce polarization. A lock-in amplifier provided rectification and filtering.
To test the microfluidic chip performance with living cells, examination of the volume regulatory response of rat astrocytes was conducted. Solution osmolality was adjusted using mannitol, which allowed a constant ionic strength to be maintained. For the most critical tests, the solution conductivities were finely titrated to be equal at all osmotic pressures; the flow rate was constant at approximately 0.3 μl/s. FIGS. 10 and 11 show the astrocytes' response to perfusion with hypotonic and hypertonic stimuli. Hypotonic media caused a rapid (˜1 min) increase in volume followed by a slow (10 min) decrease—the well known regulatory volume decrease (RVD). RVD in astrocytes is due to the efflux of KCl and neutral organic osmolytes such as taurine. The time course and extent of RVD using 188, 220, and 273 mOsm solutions (FIG. 10) are in agreement with published data. RVD in other cell types was tested, including HEK and MDCK, and similar responses were identified. However, the RVI was only observed with mild stimuli (<345 mOsm) (FIG. 11). Similar results have been previously reported for astrocytes. The RVI under the above conditions is driven by Na^+, K^+, and Cl^− fluxes through a co-transporter.
A microfluidic chip was tested by screening peptides isolated from the tarantula Grammostola spatulata. The peptides were added to a hypotonic perfusate and their effects on astrocyte RVD were examined. […]

GH3 cells = conditions: previously known; cited from earlier work

With `Nc1ncnc2c1ncn2[C@@H]1O[C@H](COP(=O)(O)OP(=O)(O)OP(=O)(O)O)[C@@H](O)[C@H]1O` [ATP] the “Cell volume response following activation” value [1] was “reversible volume changes”.

For `CC1(C)S[C@@H]2[C@H](NC(=O)C(C(=O)O)c3ccccc3)C(=O)N2[C@H]1C(=O)O` (some centres unmarked) [Carbenicillin, carbenicillin], the “Time until growth was visibly slowed” value [2] was no more than 15 min and the “Effect on bacterial growth” value ([2]; concentration dependent) was “visibly slowed growth”.

With GsMTx1 the “Reduction of RVD” value (astrocyte RVD; 100 pM peptide in hypotonic perfusate) was “about 50%”, the “Effect on RVD” value (astrocyte RVD; 1 nM peptide in hypotonic perfusate) was “completely blocked” and the “Effect on RVD” value (astrocyte RVD; 10 nM peptide in hypotonic perfusate) was “completely blocked”. For the same compound, the “Effect on RVD” value (astrocyte RVD; 1 μM peptide in hypotonic perfusate) was “completely blocked” and the “Effect on swelling-induced Ca2+ uptake” value (GH3 cells) was “block”.
